Consider 8 molecules from US20220306695A1, “COMPSTATIN ANALOGUES AND THEIR MEDICAL USES” (priority 2019, published 2022).

Like-named read-outs stand apart in the source and are kept apart here. Starred links: 1 amine or outer side, 2 acyl side, 3 side chain; linkers in the order of their positions; H or OH if unused. Positions of bridges follow the written chain, without caps; N, C: chain ends. Non-standard residues stand in square brackets, D forms with d. Residues, ends and D or L forms follow the SMILES beside them. Groups on a side chain read outwards from the residue. *: point of attachment. Trp(1-Me) = Cn1cc(C[C@H](N)C(=O)O)c2ccccc21; Abu(4-yl) = O=C([C@H](CC[*:3])N[*:1])[*:2]; C18 diacid = O=C(O)CCCCCCCCCCCCCCCCC(=O)*; C16 diacid = O=C(O)CCCCCCCCCCCCCCC(=O)*; γGlu = O=C(O)[C@H](CCC(=O)[*:2])N[*:1]; AEEA = NCCOCCOCC(=O)O; Sar = CNCC(=O)O

Series [1] has as its system classical complement pathway. Briefly: In vitro haemolysis assay (inhibition of classical complement pathway). The following applies: Table 3; human serum, sensitized sheep red blood cells; read-out: IC50[nM], in vitro analysis of inhibition of hemolysis. In kind it is cell-based, human. Summed up:
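Serially diluted compound (9 points) was preincubated 15 min at room temperature with diluted human serum, titrated per batch to give 70-90% maximal haemolysis, in Tris/casein buffer pH 7.4 with Mg2+/Ca2+. Antibody-sensitized sheep erythrocytes were then added for 30 min at 37° C, and the reaction was stopped with EDTA. Haemolysis was read at A405, with IC50 from 4PL fit.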

The format of series [2] is physicochemical. The note with it: 50 mg/mL peptide. The procedure: Chemical stability of compstatin analogues with cystathionine or disulfide bridge. Stability was assessed in three formulations at 50 mg/mL peptide, F1:20 mM phosphate pH 5.5, F2:20 mM phosphate pH 6.5 and F3:20 mM phosphate pH 7.5. The formulations were prepared by direct dissolution of peptide from lyophilized portions in the respective formulations. pH was adjusted to target with 1 M NaOH and 1 M HCl. Chemical stability was assessed under accelerated conditions (14 days, 40° C.) and evaluated as change in purity by reverse phase HPLC, and change in covalent oligomer content by denaturing SEC. The formulations were placed at 40° C. with analysis points at T=0, 7 and 14 days. On each time point a small volume was extracted and diluted to 2 mg/mL and tested by reverse phase HPLC and denaturing SEC. Purity was assessed by reverse phase HPLC using an Ultimate 3000 system for binary gradient application equipped with a Kinetix C18 column (cat. no. 00F-4462-Y0, 150 mm×3 mm, 2.6 μm) run at 0.5 ml/min with a gradient of buffer A (0.3% TFA, aq.) and buffer B (0.3% TFA, 90% MeCN, aq.) gradient from 40% B to 70% B over 20 min. Detection was done using a diode array detector set to 220 nm. Covalent oligomer formation was assessed by denaturing SEC (size exclusion chromatography) using an Ultimate 3000 system equipped with a TSKgel SuperSW 2000 column (cat. no. 818674, 300 mm×3 mm, 4 μm) run at 0.5 ml/min with isocratic flow of buffer A (0.1% TFA, 45% MeCN, aq.), 10 min. Detection was done using a diode array detector set to 215 nm. Compounds 126 and 156 were carefully weighed out and dissolved in formulations F1, F2 and F3 to a target concentration of 50 mg/mL. Once visually dissolved, concentration was confirmed by absorbance at 280 nm, and samples were placed in stability at 40° C. Samples for analysis were extracted on T=0, 7 and 14 days from a 40° C. climate chamber. The extracted volume was dissolved 1:25 (final concentration: 2 mg/mL) in 20 mM phosphate pH 5.5, 6.5 or 7.5 and measured by reverse phase HPLC and denaturing SEC by injection of 0.4 μL (column load […]). The resulting chromatograms were integrated to determine chemical purity by reverse phase HPLC and covalent oligomer content by denaturing SEC.

Another series has as its target Human C3 (human, UniProt P01024 23-1663). Briefly: cell-based or functional assay.

Chain of Human C3 (P01024 23-1663 limits assumed): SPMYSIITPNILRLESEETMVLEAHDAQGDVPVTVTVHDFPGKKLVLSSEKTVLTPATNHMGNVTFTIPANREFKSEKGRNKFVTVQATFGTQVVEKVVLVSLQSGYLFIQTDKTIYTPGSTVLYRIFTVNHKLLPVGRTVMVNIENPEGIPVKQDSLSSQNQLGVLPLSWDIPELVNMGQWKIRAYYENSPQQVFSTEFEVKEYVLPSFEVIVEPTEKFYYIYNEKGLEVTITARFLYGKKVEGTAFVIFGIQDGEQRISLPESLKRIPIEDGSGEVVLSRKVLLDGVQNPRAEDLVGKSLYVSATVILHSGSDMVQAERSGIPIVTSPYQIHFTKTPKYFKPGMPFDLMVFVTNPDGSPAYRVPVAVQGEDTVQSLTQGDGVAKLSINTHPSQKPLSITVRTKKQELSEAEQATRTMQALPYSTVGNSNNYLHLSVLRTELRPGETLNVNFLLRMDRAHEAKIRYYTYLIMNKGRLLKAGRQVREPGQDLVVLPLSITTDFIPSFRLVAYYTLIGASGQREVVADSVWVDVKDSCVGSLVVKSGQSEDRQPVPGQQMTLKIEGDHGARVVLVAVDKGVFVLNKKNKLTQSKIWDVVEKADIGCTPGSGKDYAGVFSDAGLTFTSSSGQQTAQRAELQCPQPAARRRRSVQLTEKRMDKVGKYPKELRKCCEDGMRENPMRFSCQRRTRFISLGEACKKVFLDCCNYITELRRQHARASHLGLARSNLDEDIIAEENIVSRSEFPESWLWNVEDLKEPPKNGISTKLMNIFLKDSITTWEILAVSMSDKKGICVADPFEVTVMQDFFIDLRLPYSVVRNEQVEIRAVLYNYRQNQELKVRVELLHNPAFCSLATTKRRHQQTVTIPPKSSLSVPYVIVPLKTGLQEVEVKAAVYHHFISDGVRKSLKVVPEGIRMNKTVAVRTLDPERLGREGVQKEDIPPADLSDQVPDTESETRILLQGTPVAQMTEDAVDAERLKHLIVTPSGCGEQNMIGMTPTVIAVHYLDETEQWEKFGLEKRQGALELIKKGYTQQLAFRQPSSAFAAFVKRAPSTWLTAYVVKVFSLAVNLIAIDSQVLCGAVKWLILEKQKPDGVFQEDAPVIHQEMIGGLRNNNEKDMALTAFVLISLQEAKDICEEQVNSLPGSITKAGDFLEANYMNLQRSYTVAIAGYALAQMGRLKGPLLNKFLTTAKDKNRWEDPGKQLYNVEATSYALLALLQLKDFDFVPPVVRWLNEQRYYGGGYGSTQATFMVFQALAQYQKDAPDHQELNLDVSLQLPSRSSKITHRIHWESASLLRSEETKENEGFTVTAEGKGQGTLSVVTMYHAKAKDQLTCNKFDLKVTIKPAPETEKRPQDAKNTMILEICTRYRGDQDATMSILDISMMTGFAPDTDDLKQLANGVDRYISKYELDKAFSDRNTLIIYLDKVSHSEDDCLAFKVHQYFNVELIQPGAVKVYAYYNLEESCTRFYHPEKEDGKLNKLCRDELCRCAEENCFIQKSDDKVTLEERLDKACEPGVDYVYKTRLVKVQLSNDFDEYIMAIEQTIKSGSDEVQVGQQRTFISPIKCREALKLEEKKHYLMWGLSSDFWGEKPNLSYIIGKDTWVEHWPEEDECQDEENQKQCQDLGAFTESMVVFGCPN

`CC[C@H](C)[C@@H]1NC(=O)[C@@H](NC(=O)[C@H](Cc2ccccc2)NC(=O)[C@H](CCC(=O)O)NC(=O)[C@H](CO)NC(C)=O)CSCC[C@@H](C(=O)N[C@H](C(=O)N[C@@H](CCC(=O)O)C(=O)NCC(=O)N[C@@H](CCC(=O)O)C(=O)NCCOCCOCC(=O)NCCOCCOCC(=O)N[C@@H](CCCCNC(=O)CC[C@H](NC(=O)CNC(=O)CC[C@H](NC(=O)CCCCCCCCCCCCCCCCC(=O)O)C(=O)O)C(=O)O)C(N)=O)[C@@H](C)O)NC(=O)[C@H](CCCNC(=N)N)NC(=O)[C@H](Cc2c[nH]cn2)NC(=O)[C@H](CCC(=O)O)NC(=O)CNC(=O)[C@H](Cc2c[nH]c3ccccc23)NC(=O)[C@H](CC(=O)O)NC(=O)[C@H](CCC(N)=O)NC(=O)[C@H](Cc2cn(C)c3ccccc23)NC1=O` [Compound 156, Ac-SEFA(1)I[1-Me-Trp]QDWGEHRhC(1)TEGE[Peg3][Peg3]-K([17-carboxy-heptadecanoyl][γGlu]G[γGlu])-NH2] (Ac-SEFCI[Trp(1-Me)]QDWGEHR[Abu(4-yl)]TEGE[AEEA][AEEA]K([γGlu-Gly-γGlu-C18 diacid])-NH2; thioether 4-14): the 50% inhibitory concentration (IC50) (commonly the concentration that gives 50% inhibition) in series [1] is under 100 nM. The “Covalent oligomer content after 14 days 40° C. (%), F1” value in series [2] (F1: 20 mM phosphate pH 5.5, denaturing SEC) turned out to be 1.1%. In addition, the “Purity after 14 days 40° C. (%), F1” value in series [2] (F1: 20 mM phosphate pH 5.5, normalized purity (HPLC)) was determined as 92%. Moreover, the “Covalent oligomer content after 14 days 40° C. (%), F2” value in series [2] (F2: 20 mM phosphate pH 6.5, denaturing SEC) is reported as 0.5%; in series [2] (F3: 20 mM phosphate pH 7.5, denaturing SEC), 1.1%. Further, in series [2] (F2: 20 mM phosphate pH 6.5, normalized purity (HPLC)), the “Purity after 14 days 40° C. (%), F2” value was determined as 96%. The “Purity after 14 days 40° C. (%), F3” value in series [2] (F3: 20 mM phosphate pH 7.5, normalized purity (HPLC)) was determined as 95%.

B1: Compound 108 (peptide)
peptide: {C18 diacid}-EGSEYCI[Trp(1-Me)]QDWGEHRC[Sar]E-NH2
modifications: disulfide 6-16
SMILES: CC[C@H](C)[C@@H]1NC(=O)[C@@H](NC(=O)[C@H](Cc2ccc(O)cc2)NC(=O)[C@H](CCC(=O)O)NC(=O)[C@H](CO)NC(=O)CNC(=O)[C@H](CCC(=O)O)NC(=O)CCCCCCCCCCCCCCCCC(=O)O)CSSC[C@@H](C(=O)N(C)CC(=O)N[C@@H](CCC(=O)O)C(N)=O)NC(=O)[C@H](CCCNC(=N)N)NC(=O)[C@H](Cc2c[nH]cn2)NC(=O)[C@H](CCC(=O)O)NC(=O)CNC(=O)[C@H](Cc2c[nH]c3ccccc23)NC(=O)[C@H](CC(=O)O)NC(=O)[C@H](CCC(N)=O)NC(=O)[C@H](Cc2cn(C)c3ccccc23)NC1=O
In the series with Human C3, B1 gave an IC50[nM], inhibition of hemolysis of under 500 nM.

B2: Compound 110 (peptide)
peptide: Ac-EGSAYCI[Trp(1-Me)]QDWGEHRC[Sar]EGKK([γGlu-Gly-γGlu-C18 diacid])-NH2
modifications: disulfide 6-16
SMILES: CC[C@H](C)[C@@H]1NC(=O)[C@@H](NC(=O)[C@H](Cc2ccc(O)cc2)NC(=O)[C@H](C)NC(=O)[C@H](CO)NC(=O)CNC(=O)[C@H](CCC(=O)O)NC(C)=O)CSSC[C@@H](C(=O)N(C)CC(=O)N[C@@H](CCC(=O)O)C(=O)NCC(=O)N[C@@H](CCCCN)C(=O)N[C@@H](CCCCNC(=O)CC[C@H](NC(=O)CNC(=O)CC[C@H](NC(=O)CCCCCCCCCCCCCCCCC(=O)O)C(=O)O)C(=O)O)C(N)=O)NC(=O)[C@H](CCCNC(=N)N)NC(=O)[C@H](Cc2c[nH]cn2)NC(=O)[C@H](CCC(=O)O)NC(=O)CNC(=O)[C@H](Cc2c[nH]c3ccccc23)NC(=O)[C@H](CC(=O)O)NC(=O)[C@H](CCC(N)=O)NC(=O)[C@H](Cc2cn(C)c3ccccc23)NC1=O
In the series with Human C3, B2 gave an IC50[nM], inhibition of hemolysis of under 250 nM.

B3: Compound 112 (peptide)
peptide: Ac-SEYCI[Trp(1-Me)]QDWGEHRC[Sar]EGAK([γGlu-Gly-γGlu-C18 diacid])-NH2
modifications: disulfide 4-14
SMILES: CC[C@H](C)[C@@H]1NC(=O)[C@@H](NC(=O)[C@H](Cc2ccc(O)cc2)NC(=O)[C@H](CCC(=O)O)NC(=O)[C@H](CO)NC(C)=O)CSSC[C@@H](C(=O)N(C)CC(=O)N[C@@H](CCC(=O)O)C(=O)NCC(=O)N[C@@H](C)C(=O)N[C@@H](CCCCNC(=O)CC[C@H](NC(=O)CNC(=O)CC[C@H](NC(=O)CCCCCCCCCCCCCCCCC(=O)O)C(=O)O)C(=O)O)C(N)=O)NC(=O)[C@H](CCCNC(=N)N)NC(=O)[C@H](Cc2c[nH]cn2)NC(=O)[C@H](CCC(=O)O)NC(=O)CNC(=O)[C@H](Cc2c[nH]c3ccccc23)NC(=O)[C@H](CC(=O)O)NC(=O)[C@H](CCC(N)=O)NC(=O)[C@H](Cc2cn(C)c3ccccc23)NC1=O
Consider B3, for which the IC50[nM], inhibition of hemolysis with Human C3 was under 500 nM. Ac-SAYCI[Trp(1-Me)]QDWGEHRC[Sar]EK([γGlu-Gly-Lys-γGlu-C18 diacid])-NH2 (disulfide 4-14) [Compound 105]: in the series with Human C3, the IC50[nM], inhibition of hemolysis was under 100 nM.

B4: Compound 100 (peptide)
peptide: Ac-K([AEEA-AEEA-γGlu-C16 diacid])GSAICIWQDWGEHRCTEGE-NH2
modifications: disulfide 6-16
SMILES: CC[C@H](C)[C@H](NC(=O)[C@H](C)NC(=O)[C@H](CO)NC(=O)CNC(=O)[C@H](CCCCNC(=O)COCCOCCNC(=O)COCCOCCNC(=O)CC[C@H](NC(=O)CCCCCCCCCCCCCCC(=O)O)C(=O)O)NC(C)=O)C(=O)N[C@H]1CSSC[C@@H](C(=O)N[C@H](C(=O)N[C@@H](CCC(=O)O)C(=O)NCC(=O)N[C@@H](CCC(=O)O)C(N)=O)[C@@H](C)O)NC(=O)[C@H](CCCNC(=N)N)NC(=O)[C@H](Cc2c[nH]cn2)NC(=O)[C@H](CCC(=O)O)NC(=O)CNC(=O)[C@H](Cc2c[nH]c3ccccc23)NC(=O)[C@H](CC(=O)O)NC(=O)[C@H](CCC(N)=O)NC(=O)[C@H](Cc2c[nH]c3ccccc23)NC(=O)[C@H]([C@@H](C)CC)NC1=O
B4 registered an IC50[nM], inhibition of hemolysis with Human C3 of under 500 nM.

B5: Compound 103 (peptide)
peptide: Ac-EGSAYCI[Trp(1-Me)]QDWGEHK([AEEA-AEEA-γGlu-C16 diacid])C[Sar]E-NH2
modifications: disulfide 6-16
SMILES: CC[C@H](C)[C@@H]1NC(=O)[C@@H](NC(=O)[C@H](Cc2ccc(O)cc2)NC(=O)[C@H](C)NC(=O)[C@H](CO)NC(=O)CNC(=O)[C@H](CCC(=O)O)NC(C)=O)CSSC[C@@H](C(=O)N(C)CC(=O)N[C@@H](CCC(=O)O)C(N)=O)NC(=O)[C@H](CCCCNC(=O)COCCOCCNC(=O)COCCOCCNC(=O)CC[C@H](NC(=O)CCCCCCCCCCCCCCC(=O)O)C(=O)O)NC(=O)[C@H](Cc2c[nH]cn2)NC(=O)[C@H](CCC(=O)O)NC(=O)CNC(=O)[C@H](Cc2c[nH]c3ccccc23)NC(=O)[C@H](CC(=O)O)NC(=O)[C@H](CCC(N)=O)NC(=O)[C@H](Cc2cn(C)c3ccccc23)NC1=O
In the series with Human C3, B5 had an IC50[nM], inhibition of hemolysis of under 100 nM.

B6: Compound 109 (peptide)
peptide: Ac-EGSAYCI[Trp(1-Me)]QDWGEHRC[Sar]EGEK([γGlu-Gly-γGlu-C18 diacid])-NH2
modifications: disulfide 6-16
SMILES: CC[C@H](C)[C@@H]1NC(=O)[C@@H](NC(=O)[C@H](Cc2ccc(O)cc2)NC(=O)[C@H](C)NC(=O)[C@H](CO)NC(=O)CNC(=O)[C@H](CCC(=O)O)NC(C)=O)CSSC[C@@H](C(=O)N(C)CC(=O)N[C@@H](CCC(=O)O)C(=O)NCC(=O)N[C@@H](CCC(=O)O)C(=O)N[C@@H](CCCCNC(=O)CC[C@H](NC(=O)CNC(=O)CC[C@H](NC(=O)CCCCCCCCCCCCCCCCC(=O)O)C(=O)O)C(=O)O)C(N)=O)NC(=O)[C@H](CCCNC(=N)N)NC(=O)[C@H](Cc2c[nH]cn2)NC(=O)[C@H](CCC(=O)O)NC(=O)CNC(=O)[C@H](Cc2c[nH]c3ccccc23)NC(=O)[C@H](CC(=O)O)NC(=O)[C@H](CCC(N)=O)NC(=O)[C@H](Cc2cn(C)c3ccccc23)NC1=O
B6 displayed an IC50[nM], inhibition of hemolysis with Human C3 of under 250 nM.
